Data published in patent US20110020801A1, “Carboxylesterase-1 Polymorphisms and Methods of Use Therefor” (priority 2007, published 2011).

Legend:
p.Gly143Glu CES1 = target: T1, p.Gly143Glu CES1 (Homo sapiens, UniProt P23141, G143E); assay: MPH hydrolysis to ritalinic acid by S9 of cells expressing p.Gly143Glu CES1 (HPLC); type: biochemical; settings: S9 500 μg/ml, even at very high S9 concentration (2 mg/ml); 37° C., 2 h
T1 construct: inserting a stop codon after CES1A1 gene to yield the constructs expressing CES1 without V5-His tag; expressed in transfected cells
T1 sequence (P23141 18-567 G143E/Y526T): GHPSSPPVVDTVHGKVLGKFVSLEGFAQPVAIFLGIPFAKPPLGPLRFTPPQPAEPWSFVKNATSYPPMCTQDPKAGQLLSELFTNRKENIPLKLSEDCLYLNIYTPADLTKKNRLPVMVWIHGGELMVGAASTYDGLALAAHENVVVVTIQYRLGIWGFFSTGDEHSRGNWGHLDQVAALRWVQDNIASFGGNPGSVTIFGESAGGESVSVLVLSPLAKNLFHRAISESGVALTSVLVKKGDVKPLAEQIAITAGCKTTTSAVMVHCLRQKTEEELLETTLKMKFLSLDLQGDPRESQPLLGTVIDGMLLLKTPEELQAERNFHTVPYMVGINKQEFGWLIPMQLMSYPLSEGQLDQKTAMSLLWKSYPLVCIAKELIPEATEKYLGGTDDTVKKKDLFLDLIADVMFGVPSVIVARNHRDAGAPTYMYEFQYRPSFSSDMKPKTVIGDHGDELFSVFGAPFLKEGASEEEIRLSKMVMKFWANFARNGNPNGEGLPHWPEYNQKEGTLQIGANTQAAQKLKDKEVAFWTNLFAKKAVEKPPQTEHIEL
Text: (§1) The desired plasmid was designed such that the recombinant CES1 would be expressed in mammalian cells with a V5-His tag to facilitate detection and purification. Additionally, another plasmid was generated by inserting a stop codon after CES1A1 gene to yield the constructs expressing CES1 without V5-His tag. […] Thus, only untagged CES1 and its associated mutants were used in the enzymatic hydrolysis study. Two constructs of CES1 mutations, p.Gly143Glu and p.Asp260fs, were generated using a site-directed mutagenesis assay. All constructs were subjected to DNA sequencing analysis to confirm that the desired plasmids were obtained. The identified CES1A1 plasmids (WT, p.Gly143Glu, and p.Asp260fs) were co-transfected with pOG44 plasmid at a ratio of 1:10 into Flp-In™-293 cells using […] (Invitrogen, Carlsbad, Calif.). Additionally, the self-ligated pcDNA5/FRT/V5-His-TOPO® vector was included as a vector control. Twenty-four hours after transfection, cells were washed with PBS and fresh complete medium (Dulbecco's modified Eagle's medium containing 10% fetal bovine serum) was added. […]
(§2) After attaining approximately 95% confluence, cells were rinsed and harvested in PBS containing 10 mM HEPES (pH 7.4). […] The protein concentration was determined using a Pierce BCA assay kit (Rockford, Ill.).
(§3) For the study of MPH hydrolysis, the reaction was conducted in 1.5 mL eppendorf tubes with a final S9 concentration of 0.5 mg/mL at a total volume of 100 μL. […] Concentrations of the primary phase I MPH metabolite produced via hydrolysis, ritalinic acid (RA), was determined utilizing an established HPLC method described below.
(§4) Thus, following the enzymatic assay, the values determined for spontaneous PNP and RA hydrolysis were subtracted from the total PNP and RA production. […] All collected data were fit to the Michaelis-Menten equation, and kinetic parameters were calculated using nonlinear regression analysis with Graphpad Prism software (Graphpad Software Inc., San Diego, Calif.) […]

p.Asp260fs CES1 = target: T2, p.Asp260fs CES1 (Homo sapiens, UniProt P23141); assay: MPH hydrolysis to ritalinic acid by S9 of cells expressing p.Asp260fs CES1 (HPLC); type: biochemical; settings: S9 500 μg/ml, even at very high S9 concentration (2 mg/ml); 37° C., 2 h
T2 construct: a frameshift mutation that alters residues 260-299 and causes early truncation at a premature stop codon; expressed in transfected cells
T2 sequence (P23141 with tags, fused parts or gaps): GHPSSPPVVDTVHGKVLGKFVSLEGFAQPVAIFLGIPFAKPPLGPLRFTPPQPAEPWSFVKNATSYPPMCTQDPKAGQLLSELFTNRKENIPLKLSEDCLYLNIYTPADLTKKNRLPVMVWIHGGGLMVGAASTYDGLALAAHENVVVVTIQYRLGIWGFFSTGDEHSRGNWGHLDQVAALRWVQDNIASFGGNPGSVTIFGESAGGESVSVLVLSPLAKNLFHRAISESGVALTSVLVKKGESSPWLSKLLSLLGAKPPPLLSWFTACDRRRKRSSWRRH
Text: as §1, §2, §3, §4

COC(=O)[C@H](c1ccccc1)[C@H]1CCCCN1 [d-MPH, methylphenidate]
catalytic activity towards MPH hydrolysis (p.Gly143Glu CES1): failed to show any hydrolytic activity
catalytic activity towards MPH hydrolysis (p.Asp260fs CES1): failed to show any hydrolytic activity
